{
  "source": "patent US20220257698A1",
  "about": "“ANGIOTENSIN TYPE 2 (AT2) RECEPTOR AGONISTS FOR USE IN THE TREATMENT OF CANCER” (LANTHIOPEP B.V., priority 2019, published 2022)",
  "key": {"[1]": {"system": "MaCa4151 breast cancer PDX model", "assay": "KcAng(1-7) on growth of breast carcinoma PDX MaCa4151 in mice", "assay_type": "in vivo, NMRI nu/nu mice (human PDX)", "procedure": "In vivo studies were conducted at EPO GmbH Berlin. Large studies (FIG. 1A, 2, 3, 4, 5) comprised 3 groups of 10 mice/group and 5 animals as reserve, as outlined in Table 1. Smaller studies (FIG. 1B, 1C, 1D) comprised 2 groups of mice of 3 mice per group. The animals were allocated to the various treatment groups (e.g. 0.2 μg/kg and 30 μg/kg) with a maximum of 10 animals per group. […] The groups received subcutaneous (s.c.) drug injection (for max. 28 days) as outlined in the Table 1.\nNMRI nu/nu mice were used in this study. The animals were female at age of 6 to 8 weeks. The respective PDX tumors were inoculated subcutaneously (s.c.), and the tumors were grown to achieve palpable tumor sizes before start of the respective treatments. The PDX included breast (MaCa4151), colon (Co9689A), head & neck (HN10309), lung (Lu7433) and ovarian (OvCa13329) cancer (Table 2).\nTreatment with KcAng(1-7) was started with palpable tumors after the randomization of animals regarding tumor volume. KcAng(1-7) was applied s.c. by daily injections at […] or 30 μg/kg dose for a maximum of 28 days (or earlier as defined by the humane end point for the study).\nKcAng(1-7) was prepared as follows: The compounds was suspended in sterile PBS resulting in a clear solution. The remains of this formulation were stored at 4° C.\nTumor growth stimulatory or inhibitory activity of the KcAng(1-7) was evaluated by determination of tumor volumes (TV). During the study, tumor volumes and body weight were measured twice a week, and the ratio of the mean tumor volumes between the compound-treated group and the vehicle-treated group (T/C) was calculated.\nTumor volume=(tumor width)×(tumor width)×(tumor length)+2\nT/C=T÷C • T: Mean estimated tumor volume of the compound-treated group • C: Mean estimated tumor volume of the vehicle-treated group"}, "U87MG glioblastoma CDX": {"system": "U87MG glioblastoma CDX", "assay": "Tumor hemoglobin level (indirect angiogenesis) in U87MG CDX", "assay_type": "in vivo, cd1 nu/nu mice (human GBM cell line)", "conditions": "KcAng(1-7) 1 μg/kg/d, Losartan 20 mg/kg/d, or both", "procedure": "Efficacy of treatment was evaluated by: […] Mice with U87MG cell CDX were randomized at day 0. KcAng(1-7) was injected subcutaneously (1 μg/kg) on a daily basis. Losartan was administered intraperitoneal at 20 mg/kg/day. […] In brief, tumors were homogenized in double-distilled water. Eighty microliters of homogenates were mixed with 1 mL of Drabkin's solution and incubated for 15 min at room temperature. After centrifugation at 400×g for 5 min, the supernatants were subjected to absorbance measurement at 540 nm. The absorption, which is proportional to hemoglobin concentration, was divided by tumor weight."}, "[2]": {"conditions": "Gr. B 0.2 μg/kg/d s.c., Day 21 (Meas. 1)"}, "[3]": {"conditions": "Gr. B 0.2 μg/kg/d s.c., Day 23 (Meas. 2)"}, "[4]": {"conditions": "Gr. B 0.2 μg/kg/d s.c., Day 26 (Meas. 3)"}, "[5]": {"conditions": "Gr. B 0.2 μg/kg/d s.c., Day 29 (Meas. 4)"}, "[6]": {"conditions": "Gr. B 0.2 μg/kg/d s.c., Day 34 (Meas. 5)"}, "[7]": {"conditions": "Gr. B 0.2 μg/kg/d s.c., Day 37 (Meas. 6)"}, "[8]": {"conditions": "Gr. C 30 μg/kg/d s.c., Day 21 (Meas. 1)"}, "[9]": {"conditions": "Gr. C 30 μg/kg/d s.c., Day 23 (Meas. 2)"}, "[10]": {"conditions": "Gr. C 30 μg/kg/d s.c., Day 26 (Meas. 3)"}, "[11]": {"conditions": "Gr. C 30 μg/kg/d s.c., Day 29 (Meas. 4)"}, "[12]": {"conditions": "Gr. C 30 μg/kg/d s.c., Day 34 (Meas. 5)"}, "[13]": {"conditions": "Gr. C 30 μg/kg/d s.c., Day 37 (Meas. 6)"}},
  "data": [
    {"substance": "Lys-Asp-Arg-Val-Abu/Ala-Ile-His-Abu/Ala (KDRVAIHA; not fully specified; cyclic thioether (Abu/Ala bridge); VARIANT (5)..(5) /replace=“Abu”; VARIANT (8)..(8) /replace=“Abu”; SITE (1)..(8) /note=“Variant residues given in the sequence have no preference with respect to those in the annotations for variant positions”) [KcAng(1-7)]", "values": [
      {"measurement": "effect on tumor growth", "setting": "[1]; 0.2 and 30 μg/kg, 17 days", "value": "did not resulted in an increase of tumor growth or reduced tumor growth"},
      {"measurement": "RTV Mean", "setting": "[1]; [2]", "value": 1},
      {"measurement": "RTV Median", "setting": "[1]; [2]", "value": 1},
      {"measurement": "T/C", "setting": "[1]; [2]", "value": 95.7, "unit": "%"},
      {"measurement": "Tumor Vol. Mean", "setting": "[1]; [2]", "value": 0.163, "unit": "cm^3"},
      {"measurement": "Tumor Vol. Median", "setting": "[1]; [2]", "value": 0.131, "unit": "cm^3"},
      {"measurement": "RTV Mean", "setting": "[1]; [3]", "value": 1.7},
      {"measurement": "RTV Median", "setting": "[1]; [3]", "value": 1.6},
      {"measurement": "T/C", "setting": "[1]; [3]", "value": 105.2, "unit": "%"},
      {"measurement": "Tumor Vol. Mean", "setting": "[1]; [3]", "value": 0.281, "unit": "cm^3"},
      {"measurement": "Tumor Vol. Median", "setting": "[1]; [3]", "value": 0.241, "unit": "cm^3"},
      {"measurement": "RTV Mean", "setting": "[1]; [4]", "value": 2.4},
      {"measurement": "RTV Median", "setting": "[1]; [4]", "value": 2.2},
      {"measurement": "T/C", "setting": "[1]; [4]", "value": 118.4, "unit": "%"},
      {"measurement": "Tumor Vol. Mean", "setting": "[1]; [4]", "value": 0.392, "unit": "cm^3"},
      {"measurement": "Tumor Vol. Median", "setting": "[1]; [4]", "value": 0.368, "unit": "cm^3"},
      {"measurement": "RTV Mean", "setting": "[1]; [5]", "value": 3.4},
      {"measurement": "RTV Median", "setting": "[1]; [5]", "value": 3.2},
      {"measurement": "T/C", "setting": "[1]; [5]", "value": 104.9, "unit": "%"},
      {"measurement": "Tumor Vol. Mean", "setting": "[1]; [5]", "value": 0.55, "unit": "cm^3"},
      {"measurement": "Tumor Vol. Median", "setting": "[1]; [5]", "value": 0.491, "unit": "cm^3"},
      {"measurement": "RTV Mean", "setting": "[1]; [6]", "value": 6.2},
      {"measurement": "RTV Median", "setting": "[1]; [6]", "value": 5.2},
      {"measurement": "T/C", "setting": "[1]; [6]", "value": 120.2, "unit": "%"},
      {"measurement": "Tumor Vol. Mean", "setting": "[1]; [6]", "value": 0.995, "unit": "cm^3"},
      {"measurement": "Tumor Vol. Median", "setting": "[1]; [6]", "value": 1.021, "unit": "cm^3"},
      {"measurement": "RTV Mean", "setting": "[1]; [7]", "value": 10.5},
      {"measurement": "RTV Median", "setting": "[1]; [7]", "value": 7.6},
      {"measurement": "T/C", "setting": "[1]; [7]", "value": 137, "unit": "%"},
      {"measurement": "Tumor Vol. Mean", "setting": "[1]; [7]", "value": 1.607, "unit": "cm^3"},
      {"measurement": "Tumor Vol. Median", "setting": "[1]; [7]", "value": 1.452, "unit": "cm^3"},
      {"measurement": "RTV Mean", "setting": "[1]; [8]", "value": 1},
      {"measurement": "RTV Median", "setting": "[1]; [8]", "value": 1},
      {"measurement": "T/C", "setting": "[1]; [8]", "value": 94.8, "unit": "%"},
      {"measurement": "Tumor Vol. Mean", "setting": "[1]; [8]", "value": 0.162, "unit": "cm^3"},
      {"measurement": "Tumor Vol. Median", "setting": "[1]; [8]", "value": 0.157, "unit": "cm^3"},
      {"measurement": "RTV Mean", "setting": "[1]; [9]", "value": 1.5},
      {"measurement": "RTV Median", "setting": "[1]; [9]", "value": 1.5},
      {"measurement": "T/C", "setting": "[1]; [9]", "value": 92.6, "unit": "%"},
      {"measurement": "Tumor Vol. Mean", "setting": "[1]; [9]", "value": 0.248, "unit": "cm^3"},
      {"measurement": "Tumor Vol. Median", "setting": "[1]; [9]", "value": 0.165, "unit": "cm^3"},
      {"measurement": "RTV Mean", "setting": "[1]; [10]", "value": 2.4},
      {"measurement": "RTV Median", "setting": "[1]; [10]", "value": 2.5},
      {"measurement": "T/C", "setting": "[1]; [10]", "value": 122.3, "unit": "%"},
      {"measurement": "Tumor Vol. Mean", "setting": "[1]; [10]", "value": 0.405, "unit": "cm^3"},
      {"measurement": "Tumor Vol. Median", "setting": "[1]; [10]", "value": 0.383, "unit": "cm^3"},
      {"measurement": "RTV Mean", "setting": "[1]; [11]", "value": 4},
      {"measurement": "RTV Median", "setting": "[1]; [11]", "value": 4},
      {"measurement": "T/C", "setting": "[1]; [11]", "value": 125, "unit": "%"},
      {"measurement": "Tumor Vol. Mean", "setting": "[1]; [11]", "value": 0.655, "unit": "cm^3"},
      {"measurement": "Tumor Vol. Median", "setting": "[1]; [11]", "value": 0.671, "unit": "cm^3"},
      {"measurement": "RTV Mean", "setting": "[1]; [12]", "value": 6.8},
      {"measurement": "RTV Median", "setting": "[1]; [12]", "value": 6.5},
      {"measurement": "T/C", "setting": "[1]; [12]", "value": 130.6, "unit": "%"},
      {"measurement": "Tumor Vol. Mean", "setting": "[1]; [12]", "value": 1.081, "unit": "cm^3"},
      {"measurement": "Tumor Vol. Median", "setting": "[1]; [12]", "value": 1.072, "unit": "cm^3"},
      {"measurement": "RTV Mean", "setting": "[1]; [13]", "value": 9.8},
      {"measurement": "RTV Median", "setting": "[1]; [13]", "value": 9.1},
      {"measurement": "T/C", "setting": "[1]; [13]", "value": 131.2, "unit": "%"},
      {"measurement": "Tumor Vol. Mean", "setting": "[1]; [13]", "value": 1.539, "unit": "cm^3"},
      {"measurement": "Tumor Vol. Median", "setting": "[1]; [13]", "value": 1.522, "unit": "cm^3"},
      {"measurement": "Tumor hemoglobin level, mean (± SEM)", "setting": "U87MG glioblastoma CDX", "value": "8.8 ± 1.0 mg hemoglobin/g of tissue"}
    ]}
  ]
}
